Reference: US9650365B2 (UNIVERSITY OF CONNECTICUT, priority 2014, dated 2017)
Read-outs that look alike come from different tables or passages of the source.

Tests used:
HUVEC = HUVEC proliferation (MTS); format: cell-based, human; conditions: Homo sapiens, HUVEC, 72 h
Text: (§1) In vivo angiogenesis is dependent on endothelial cell proliferation; therefore, the inhibition of HUVEC proliferation is commonly utilized as an early stage in vitro model of anti-angiogenic activity. […] Under normal conditions, HUVECs plated and grown on Matrigel migrate towards each other, align, and form tubes that resemble in vivo capillary beds. This assay is generally considered a more robust model of angiogenesis as it requires several aspects of proper vessel formation, including adhesion, migration, and tube formation.
HUVEC Cell Viability and Proliferation. HUVEC cell viability and proliferation will be assessed by measuring cellular metabolic activity using MTT (viability) or MTS (proliferation) according to the manufacturer's instructions. HUVECs (3000 cells/well) are seeded in a 96-well plate and allowed to attach overnight. […] For viability, the final value is a corrected optical density (570 nm-690 nm). All viability and GI50 values are from a minimum of three separate experiments performed in triplicate.
HUVEC Cell Viability and Proliferation. HUVEC cell proliferation was assessed by measuring cellular metabolic activity using standard MTS/PMS protocols according to manufacturer's instructions. Briefly, HUVECs (3,000 cells/well) were seeded in a 96-well plate and allowed to attach overnight. Cells were treated with varying concentrations of drug as indicated and proliferation was assessed after 72 h with MTS.

[1] = tested on: Hh signaling (Gli1 mRNA) in C3H10T1/2 cells; assay: Down-regulation of endogenous Gli1 mRNA in Hh-dependent C3H10T1/2 cells; format: cell-based, mouse; conditions: Mus musculus; for mrna remaining at 1 µM: read-out: % Gli expression (1 μM)
Protocol: To determine whether the triazole functionality was required for inhibition of Hh signaling, the ability of Analogue 1 to down-regulate the well-characterized Hh pathway target gene Gli1 in the Hh-dependent C3H10T1/2 cell line was determined. In this cellular model, activation of the pathway with exogenous recombinant Hh ligand results in a characteristic up-regulation of Gli1 mRNA, while concomitant administration of a pathway inhibitor reduces Gli1 expression.
(§2) General Information. Protocols for general cell culture, qPCR and Hh inhibition in C3H10T1/2 and ASZ cells are as previously described.^28 Protocols for the initiation and growth of Math1-Cre-ER; Ptc^fl/fl medulloblastoma tumors, isolation and in vitro culture of MERP MB cells, as wells as the anti-proliferation and qPCR studies performed in these cells were as previously described.^a Sonic Hedgehog (C25II) recombinant mouse protein was purchased from Life Technologies. aData was analyzed using GraphPad Prism 5 and reported values represent mean±SEM for at least two separate experiments performed in triplicate.
(§3) In this well-studied model system for evaluating small molecule inhibition of Hh signaling, addition of an exogenous Hh agonist (recombinant Hh ligand or small molecule) results in a characteristic increase in Gli1 mRNA expression. Concomitant incubation with a pathway inhibitor reduces Gli1 expression. Analogues that reduced Gli1 mRNA levels below 20% in this assay were subsequently evaluated for their ability to reduce Gli1 mRNA expression levels in a concentration-dependent fashion in these cells and the Hh-dependent murine BCC cell line ASZ. In addition, several compounds were evaluated for their anti-proliferative effects in primary Hh-dependent medulloblastoma cells isolated from conditional patched knockout (Math1-Cre-ER; Ptc^fl/fl, MERP) mice. […] Finally, each of these analogues was evaluated for its ability to inhibit proliferation in human umbilical vein […] cells (HUVECs). In vivo angiogenesis is dependent on endothelial cell proliferation; therefore, the inhibition of HUVEC proliferation is commonly utilized as an early stage in vitro model of anti-angiogenic activity.

[2] = tested on: Hh signaling (Gli1 mRNA) in ASZ cells; assay: Down-regulation of endogenous Gli1 mRNA in ASZ cells; format: cell-based, murine; conditions: Mus musculus
Protocol: as §2, §3

tube formation in HUVECs = assay: HUVEC tube formation on Matrigel; format: cell-based, human; conditions: 10 μM
Text: as §1
Tube Formation Assay. Matrigel (BD Biosciences) is diluted with DMEM to 3 mg/ml and used to coat the wells of a 24-well tissue culture dish. Plates are incubated at room temperature for 30 min until the matrigel solidifies. HUVECs are suspended in M199 media with 1% FBS and penicillin/streptomycin and 40,000 cells are added to each well. Plates are incubated at 37° C. for 1 h to allow HUVECs to attach to the matrigel. […] Phase contrast images of each well (3/well) are taken on an inverted microscope and quantified using Image J software (NIH).
Tube Formation Assay. Matrigel (BD Biosciences) was diluted 1:1 with DMEM (matrigel protein concentration no less than 3 mg/ml) and used to coat the wells of a 24-well tissue culture dish (280 uL per well). Plates were incubated at 37° C. for no more than 1 h until the matrigel solidified. HUVECs were suspended in M199 media with 1% FBS and penicillin/streptomycin and 50,000 cells were added to each well. Plates were incubated at 37° C. for 20-30 min to allow HUVECs to attach to the matrigel. Cells were treated with control (DMSO), known angiogenic inhibitor suramin (10 uM), or varying doses (10, 1, 0.1 μM) of drug and incubated for 16 h. Phase contrast images were taken from multiple locations in each well (8/well) on an inverted microscope and tube formation parameters quantified using Image J software (NIH).

[3] = C3H 10T1/2, 24 hr incubation, read-out: IC50 (μM) C3H10T1/2
[4] = 48 hr incubation, read-out: IC50 (μM) ASZ
[5] = DMSO set as 100% tube formation
[6] = read-out: GI50 (μM) HUVEC, 72 h
[7] = C3H 10T1/2, 24 h, read-out: IC50 (μM) C3H10T1/2, 24 hr incubation
[8] = 48 h, read-out: IC50 (μM) ASZ, 48 hr incubation
[9] = C3H 10T1/2, read-out: inactive in the C3H10T1/2 MEFs at concentrations up to
[10] = read-out: IC50 down-regulation of Gli1 in ASZ cells

Compound	IC50 [1, 3] [µM]	IC50 [2, 4] [µM]	GI50 (HUVEC; read-out: GI50 (μM) HUVEC) [µM]	also measured
CCCn1ncn(-c2ccc(N3CCN(c4ccc(OC[C@@H]5CO[C@](C)(c6ccc(Cl)cc6Cl)O5)cc4)CC3)cc2)c1=O [Compound 23a, 4-(4-(4-(4-(((2S,4R)-2-(2,4-dichlorophenyl)-2-methyl-1,3-dioxolan-4-yl)methoxy)phenyl)piperazin-1-yl)phenyl)-2-propyl-2,4-dihydro-3H-1,2,4-triazol-3-one]	> 10	1.4 ± 0.5	49.9 ± 15.9	–
Cc1ccc(C(=O)Nc2ccc(S(=O)(=O)O)c3cc(S(=O)(=O)O)cc(S(=O)(=O)O)c23)cc1NC(=O)c1cccc(NC(=O)Nc2cccc(C(=O)Nc3cc(C(=O)Nc4ccc(S(=O)(=O)O)c5cc(S(=O)(=O)O)cc(S(=O)(=O)O)c45)ccc3C)c2)c1 [Suramin, reference compound]	–	–	–	ability to inhibit tube junctions (tube formation in HUVECs; [5]): 57.6±6.1%; ability to inhibit tube length (tube formation in HUVECs; [5]): 51.9±7.8%
CC[C@@H](C)n1ncn(-c2ccc(N3CCN(c4ccc(OCC5COC(Cn6cncn6)(c6ccc(Cl)cc6Cl)O5)cc4)CC3)cc2)c1=O (stereo partly drawn) [Compound 7a, 4-(4-(4-(4-((2-((1H-1,2,4-triazol-1-yl)methyl)-2-(2,4-dichlorophenyl)-1,3-dioxolan-4-yl)methoxy)phenyl)piperazin-1-yl)phenyl)-2-((R)-sec-butyl)-2,4-dihydro-3H-1,2,4-triazol-3-one]	–	–	–	GI50 (HUVEC; [6]): 1.7 ± 0.4 µM; mrna remaining at 1 µM ([1]; C3H 10T1/2, 24 h): 3 ± 0.9%; IC50 [1, 7]: 0.14 ± 0.04 µM; IC50 [2, 8]: 0.16 ± 0.07 µM
CCCn1ncn(-c2ccc(N3CCN(c4ccc(OC[C@H]5CO[C@@](C)(c6ccc(Cl)cc6Cl)O5)cc4)CC3)cc2)c1=O [Compound 25a, 4-(4-(4-(4-(((2R,4S)-2-(2,4-dichlorophenyl)-2-methyl-1,3-dioxolan-4-yl)methoxy)phenyl)piperazin-1-yl)phenyl)-2-propyl-2,4-dihydro-3H-1,2,4-triazol-3-one]	> 10	0.54 ± 0.06	24.9 ± 2.2	IC50 [1, 9]: > 10 µM; IC50 [2, 10]: 0.54 µM
CCC(C)n1ncn(-c2ccc(N3CCN(c4ccc(OCC5COC(Cn6cncn6)(c6ccccc6)O5)cc4)CC3)cc2)c1=O (stereo not shown) [Compound 3a, 4-(4-(4-(4-((2-((1H-1,2,4-triazol-1-yl)methyl)-2-phenyl-1,3-dioxolan-4-yl)methoxy)phenyl)piperazin-1-yl)phenyl)-1-(sec-butyl)-1H-1,2,4-triazol-5(4H)-one]	0.42 ± 0.2	0.45 ± 0.06	8.3 ± 0.7	mrna remaining at 1 µM ([1]; C3H 10T1/2, 1 μM, 24 hr incubation, relative to recombinant Hh ligand control (100%)): 13.1 ± 1.2%
O=[N+]([O-])c1ccc(N2CCN(c3ccc(OCC4COC(Cn5cncn5)(c5ccc(Cl)cc5Cl)O4)cc3)CC2)cc1 (stereo not shown) [Compound 10a, 1-(4-((2-((1H-1,2,4-triazol-1-yl)methyl)-2-(2,4-dichlorophenyl)-1,3-dioxolan-4-yl)methoxy)phenyl)-4-(4-nitrophenyl)piperazine]	–	–	–	GI50 (HUVEC; [6]): 8.4 ± 0.7 µM; mrna remaining at 1 µM ([1]; C3H 10T1/2, 24 h): 1.5 ± 0.05%; IC50 [1, 7]: 0.13 ± 0.03 µM; IC50 [2, 8]: 0.09 ± 0.01 µM
CC[C@@H](C)n1ncn(-c2ccc(N3CCN(c4ccc(OC[C@H]5CO[C@](C)(c6ccc(Cl)cc6Cl)O5)cc4)CC3)cc2)c1=O [Compound 18a, 2-((R)-sec-butyl)-4-(4-(4-(4-(((2S,4S)-2-(2,4-dichlorophenyl)-2-methyl-1,3-dioxolan-4-yl)methoxy)phenyl)piperazin-1-yl)phenyl)-2,4-dihydro-3H-1,2,4-triazol-3-one]	0.54 ± 0.24	0.13 ± 0.04	12.1 ± 4.7	inhibition of tube formation (overall tube length and total tube junctions) (tube formation in HUVECs; 16 h): essentially inactive

The next lines start with results.

IC50 [1, 3] [µM]	IC50 [2, 4] [µM]	Compound	GI50 (HUVEC; read-out: GI50 (μM) HUVEC) [µM]	also measured
1.1 ± 0.17	2.5 ± 0.7	CC[C@H](C)n1ncn(-c2ccc(N3CCN(c4ccc(OC[C@H]5CO[C@](C)(c6ccc(Cl)cc6Cl)O5)cc4)CC3)cc2)c1=O [Compound 14a, 2-((S)-sec-butyl)-4-(4-(4-(4-(((2S,4S)-2-(2,4-dichlorophenyl)-2-methyl-1,3-dioxolan-4-yl)methoxy)phenyl)piperazin-1-yl)phenyl)-2,4-dihydro-3H-1,2,4-triazol-3-one]	7.7 ± 4.4	–
0.47 ± 0.001	0.38 ± 0.07	CC[C@H](C)n1ncn(-c2ccc(N3CCN(c4ccc(OC[C@@H]5CO[C@@](C)(c6ccc(Cl)cc6Cl)O5)cc4)CC3)cc2)c1=O [Compound 16a, 2-((S)-sec-butyl)-4-(4-(4-(4-(((2R,4R)-2-(2,4-dichlorophenyl)-2-methyl-1,3-dioxolan-4-yl)methoxy)phenyl)piperazin-1-yl)phenyl)-2,4-dihydro-3H-1,2,4-triazol-3-one]	18.3 ± 11.8	–
> 10	0.55 ± 0.07	CC[C@H](C)n1ncn(-c2ccc(N3CCN(c4ccc(OC[C@H]5CO[C@@](C)(c6ccc(Cl)cc6Cl)O5)cc4)CC3)cc2)c1=O [Compound 15a, 2-((S)-sec-butyl)-4-(4-(4-(4-(((2R,4S)-2-(2,4-dichlorophenyl)-2-methyl-1,3-dioxolan-4-yl)methoxy)phenyl)piperazin-1-yl)phenyl)-2,4-dihydro-3H-1,2,4-triazol-3-one]	78.3 ± 17.3	IC50 [1, 9]: > 10 µM; IC50 [2, 10]: 0.55 µM
6.6 ± 0.3	2.8 ± 0.9	CC[C@@H](C)n1ncn(-c2ccc(N3CCN(c4ccc(OC[C@H]5CO[C@@](C)(c6ccc(Cl)cc6Cl)O5)cc4)CC3)cc2)c1=O [Compound 19a, 2-((R)-sec-butyl)-4-(4-(4-(4-(((2R,4S)-2-(2,4-dichlorophenyl)-2-methyl-1,3-dioxolan-4-yl)methoxy)phenyl)piperazin-1-yl)phenyl)-2,4-dihydro-3H-1,2,4-triazol-3-one]	65 ± 11.5	–
